The values that follow come from patent US20240299420A1, “TETRACYCLINE DERIVATIVE-INDUCED MITOHORMESIS MEDIATES DISEASE TOLERANCE AGAINST VIRAL INFECTIONS” (priority 2021, published 2024).

Assay [1] has as its system hsp-6::gfp reporter (UPR^mt). The format is in vivo, Caenorhabditis elegans. As to conditions: for Activity in Worm Assay: UPR^mt induction, C. elegans hsp-6::gfp reporter, compounds at 68 µM; for UPR^mt activation (hsp-6::gfp reporter): 68 µM, 9-TB at 17 μM; for induction of MSR and in particular mitohormesis: summary of screen of 51 tetracycline derivatives.
In a further assay the test system is E. coli. As to the kind of experiment: Minimum inhibitory concentration (MIC) of bacterial growth. The class given is cell-based. To be noted: compared with Dox.
The next assay relates to P. aeruginosa. The assay is described as above. The class given is cell-based. As to conditions: compared with Dox.

Turning to `CN(C)c1ccc(O)c2c1C[C@H]1C[C@H]3[C@H](N(C)C)C(O)=C(C(N)=O)C4=NNC(O)(C1C2=O)[C@]43O` (some centres unmarked) [1,12-hydroxypyrazolo minocycline], in assay [1], the “Activity in Worm Assay” value is “inactive”. As to `C[C@H]1c2cccc(O)c2C(=O)C2=C(O)[C@]3(O)C(=O)C(C#N)=C(O)[C@@H](N(C)C)[C@@H]3[C@@H](O)[C@@H]21` [2N-nitrile doxycycline], in assay [1], the “Activity in Worm Assay” value is “inactive”.

For `CN(C)[C@@H]1C(O)=C(C(N)=O)C(=O)[C@@]2(O)C(O)=C3C(=O)c4c(O)cccc4C(CSc4ccccc4)[C@H]3[C@H](O)[C@@H]12` (some centres unmarked) [13-thiophenyl dihydro methacycline], the “Activity in Worm Assay” value in assay [1] was “slight”. On to `CN(C)[C@@H]1C(O)=C(C(N)=O)C(=O)[C@@]2(O)C(O)=C3C(=O)c4c(O)cccc4C(CSC4CCCC4)[C@H]3[C@H](O)[C@@H]12` (some centres unmarked) [13-cyclopentylthio dihydro methacycline], for which the “Activity in Worm Assay” value in assay [1] was “slight”. Turning to `COc1ccc(/C=C2\c3cccc(O)c3C(=O)C3=C(O)[C@]4(O)C(=O)C(C(N)=O)=C(O)[C@@H](N(C)C)[C@@H]4[C@@H](O)[C@@H]32)cc1` [13-(4′-methoxyphenyl) methacycline], the “Activity in Worm Assay” value in assay [1] is “slight”. `CC(=O)Nc1ccc2c(c1O)C(=O)C1=C(O)[C@]3(O)C(=O)C(C(N)=O)=C(O)[C@@H](N(C)C)[C@@H]3[C@@H](O)[C@@H]1[C@H]2C` [9-acetylamino doxycycline]: the “Activity in Worm Assay” value in assay [1] is “inactive”. Consider `CN(C)c1cc(NC(=O)Nc2cc(C(F)(F)F)cc(C(F)(F)F)c2)c(O)c2c1C[C@H]1C[C@H]3[C@H](N(C)C)C(O)=C(C(N)=O)C(=O)[C@@]3(O)C(O)=C1C2=O` [9-(3,5-trifluoromethyl-phenylurea) aminominocycline], for which the “Activity in Worm Assay” value in assay [1] is “inactive”. With `CC(C)SCC1c2cccc(O)c2C(=O)C2=C(O)[C@]3(O)C(=O)C(C(N)=O)=C(O)[C@@H](N(C)C)[C@@H]3[C@@H](O)[C@@H]21` (some centres unmarked) [13-isopropylthio dihydro methacycline], the “Activity in Worm Assay” value in assay [1] is “slight”.

With `CN(C)[C@@H]1C(O)=C(C(N)=O)C(=O)[C@@]2(O)C(O)=C3C(=O)c4c(O)cccc4C(CSC4CCCC4)[C@H]3[C@H](OC(=O)C3CCCC3)[C@@H]12` (some centres unmarked) [5-cyclopentanoate-13-cyclopentylthio dihydro methacycline], the “Activity in Worm Assay” value in assay [1] was “slight”. On to `CN(C)[C@@H]1C(O)=C(C(N)=O)C(=O)[C@@]2(O)C(O)=C3C(=O)c4c(O)ccc(/C=C/c5ccccc5)c4C[C@H]3C[C@@H]12` [7-(1-styrylphenyl) sancycline], for which, in assay [1], the “Activity in Worm Assay” value was “inactive”. As for `CN(C)c1ccc(O)c2c1C[C@H]1C[C@H]3CC(O)=C(C(N)=O)C(=O)[C@@]3(O)C(O)=C1C2=O` [4-dedimethylamino minocycline], the “Activity in Worm Assay” value in assay [1] is “inactive”. Same read-out and setting: with `CN(C)[C@@H]1C(O)=C(C(N)=O)C(=O)[C@@]2(O)C(O)=C3C(=O)c4c(O)cccc4/C(=C\c4ccc(Br)cc4)[C@H]3[C@H](O)[C@@H]12` [13-(4′-bromophenyl) methacycline] the entry was “slight”. Regarding `C=C1C(=O)c2c(O)ccc(N(C)C)c2C[C@H]1C[C@H](C)[C@@H](C)N(C)C` [2N-1,1′-dimethylbutane minocycline], the “Activity in Worm Assay” value in assay [1] is “slight”. With 4-oxime minocycline, in assay [1], the “Activity in Worm Assay” value was “inactive”.

Take 11,12-pyrazolo doxycycline: the “Activity in Worm Assay” value in assay [1] was “inactive”. Still for that read-out and setting: in the case of `CN(C)[C@@H]1C(O)=C(C(N)=O)C(=O)[C@@]2(O)C(O)=C3C(=O)c4c(O)cccc4S[C@H]3C[C@@H]12` [Thiatetracycline, reference compound] it was “inactive”; in that of `CN(C)c1ccc(O)c2c1C[C@H]1C[C@H]3[C@H](N(C)C)C(O)=C(C(N)=O)C(=O)[C@@]3(O)C3NN=C2C31` (some centres unmarked) [11,12-pyrazolo minocycline], “inactive”.

In the case of Omadacycline [reference compound], in assay [1], the “UPR^mt activation (hsp-6::gfp reporter)” value was “did not activate” and the “Activity in Worm Assay” value was “inactive”. As for `NC(=O)C1=C(O)C[C@@H]2C[C@@H]3Cc4ccc(N)c(O)c4C(=O)C3=C(O)[C@]2(O)C1=O` [4-dedimethyl-amino-9-amino sancycline], the “Activity in Worm Assay” value in assay [1] is “inactive”. Still for that read-out and setting: in the case of `CCc1cc(N(C)C)c2c(c1O)C(=O)C1=C(O)[C@]3(O)C(=O)C(C(N)=O)=C(O)[C@@H](N(C)C)[C@@H]3C[C@@H]1C2` [9-ethyl minocycline] it was “inactive”; in that of `CN(C)[C@@H]1C(O)=C(C(N)=O)C(=O)[C@@]2(O)C(O)=C3C(=O)c4c(O)ccc(C5CCCC5)c4C[C@H]3C[C@@H]12` [7-cyclopentyl sancycline], “inactive”. For the molecule `CN(C)c1cc(NC(=O)CNC(C)(C)C)c(O)c2c1C[C@H]1C[C@H]3[C@H](N(C)C)C(O)=C(C(N)=O)C(=O)[C@@]3(O)C(O)=C1C2=O` [Tygacil ™, reference compound], in assay [1], the “UPR^mt activation (hsp-6::gfp reporter)” value is “did not activate” and the “Activity in Worm Assay” value is recorded as “slight”. Consider 8-bromo sancycline, for which the “induction of MSR and in particular mitohormesis” value in assay [1] is reported as “strongly induce MSR”. Moreover, in the assay on E. coli, the “MIC for E. coli” value is “significantly higher MIC”. For the same molecule, the “MIC for P. aeruginosa” value in the assay on P. aeruginosa is “significantly higher MIC”. In the case of `CN(C)c1ccc(OS(=O)(=O)C(F)(F)F)c2c1C[C@H]1C[C@H]3[C@H](N(C)C)C(O)=C(C(N)=O)C(=O)[C@@]3(O)C(O)=C1C2=O` [10-triflate minocycline], in assay [1], the “Activity in Worm Assay” value was “inactive”. Regarding `CCOC(=O)/C=C/c1ccc2c(c1O)C(=O)C1=C(O)[C@]3(O)C(=O)C(C(N)=O)=C(O)[C@@H](N(C)C)[C@@H]3[C@@H](O)[C@@H]1[C@H]2C` [9-ethylacrylate doxycycline], the “Activity in Worm Assay” value in assay [1] was “slight”. For the molecule `CN(C)c1ccc(O)c2c1C[C@H]1C[C@H]3[C@H](N(C)C)C(O)=C(C#N)C(=O)[C@@]3(O)C(O)=C1C2=O` [2N nitrile minocycline], the “Activity in Worm Assay” value in assay [1] was “inactive”.

On to `CN(C)[C@@H]1C(O)=C(C(N)=O)C(=O)[C@@]2(O)C(O)=C3C(=O)c4c(O)ccc(Cl)c4[C@@H](O)[C@H]3C[C@@H]12` [demeclocycline, reference compound], for which the “Activity in Worm Assay” value in assay [1] is “slight”. On to `CN(C)c1cc(NC(=O)CN2CCCC2)c(O)c2c1C[C@H]1C[C@H]3[C@H](N(C)C)C(O)=C(C(N)=O)C(=O)[C@@]3(O)C(O)=C1C2=O` [9-(pyrrolidinyl-methylcarbonyl) aminominocycline], for which, in assay [1], the “Activity in Worm Assay” value is “inactive”. `CN(C)[C@@H]1C(O)=C(C(N)=O)C(=O)[C@@]2(O)C(O)=C3C(=O)c4c(O)ccc(Br)c4C[C@H]3C[C@@H]12` [7-bromo sancycline]: the “induction of MSR and in particular mitohormesis” value in assay [1] is “strongly induce MSR”. Also, in the assay on E. coli, the “MIC for E. coli” value is reported as “significantly higher MIC”. Besides, the “MIC for P. aeruginosa” value in the assay on P. aeruginosa was “significantly higher MIC”. Turning to `CN(C)c1cc(-c2ccc(C(=O)O)s2)c(O)c2c1C[C@H]1C[C@H]3[C@H](N(C)C)C(O)=C(C(N)=O)C(=O)[C@@]3(O)C(O)=C1C2=O` [9-(4′-carboxy-1′-thiophene) minocycline], in assay [1], the “Activity in Worm Assay” value was “inactive”. `CN(C)c1cc(N)c(O)c2c1C[C@H]1C[C@H]3CC(O)=C(C(N)=O)C(=O)[C@@]3(O)C(O)=C1C2=O` [4-dedimethylamino-9-aminominocycline]: the “Activity in Worm Assay” value in assay [1] was “inactive”. For the molecule `CCCCCC(=O)O[C@H]1[C@H]2C(=C(O)[C@]3(O)C(=O)C(C(N)=O)=C(O)[C@@H](N(C)C)[C@H]13)C(=O)c1c(O)cccc1[C@@H]2C` [5-hexanoate doxycycline], the “Activity in Worm Assay” value in assay [1] is on record as “slight”. Turning to `CN(C)[C@@H]1C(O)=C(C(N)=O)C(=O)[C@@]2(O)C(O)=C3C(=O)c4c(ccc(C(C)(C)C)c4O)C[C@H]3C[C@@H]12` [9-tert-butyl sancycline], in assay [1], the “Activity in Worm Assay” value was “inactive”. The same measure, in the same setting: in the case of `CN(C)c1cc(-c2sccc2C(=O)O)c(O)c2c1C[C@H]1C[C@H]3[C@H](N(C)C)C(O)C(C(N)=O)C(=O)[C@@]3(O)C(O)=C1C2=O` (some centres unmarked) [9-(2′carboxy-1′-thiophene) minocycline] it was “inactive”; in that of `CN(C)[C@@H]1C(O)=C(C(N)=O)C(=O)[C@@]2(O)C(O)=C3C(=O)c4c(O)ccc(-c5ccc(F)cc5)c4C[C@H]3C[C@@H]12` [7-(4-fluoro-phenyl)sancycline], “inactive”. Regarding `CN(C)[C@@H]1C(O)=C(C(N)=O)C(=O)[C@@]2(O)C(O)=C3C(=O)c4c(O)cccc4[C@@](C)(O)[C@H]3[C@H](O)[C@@H]12` [oxytetracycline, reference compound], the “Activity in Worm Assay” value in assay [1] is “slight”.

Turning to `CCC(=O)O[C@H]1[C@H]2C(=C(O)[C@]3(O)C(=O)C(C(N)=O)=C(O)[C@@H](N(C)C)[C@H]13)C(=O)c1c(O)cccc1[C@@H]2C` [5-propionate doxycycline], the “Activity in Worm Assay” value in assay [1] is “inactive”. For `CN(C)c1ccc(O)c2c1C[C@H]1C[C@H]3[C@H](N(C)C)C(O)=C(C(N)=O)C(=O)[C@@]3(O)C(O)=C1C2=O` [minocycline, reference compound], in assay [1], the “UPR^mt activation (hsp-6::gfp reporter)” value is recorded as “did not activate” and the “Activity in Worm Assay” value is “inactive”.

`CCc1ccc2c(c1O)C(=O)C1=C(O)[C@]3(O)C(=O)C(C(N)=O)=C(O)[C@@H](N(C)C)[C@@H]3[C@@H](O)[C@@H]1[C@H]2C` [9-ethyl doxycycline]: the “Activity in Worm Assay” value in assay [1] was “inactive”.

For the molecule `CCCCc1ccc(O)c2c1C[C@H]1C[C@H]3[C@H](N(C)C)C(O)=C(C(N)=O)C(=O)[C@@]3(O)C(O)=C1C2=O` [7-butyl sancycline], in assay [1], the “Activity in Worm Assay” value is listed as “slight”.
